From US8815936B2 (Nad Life Pty Ltd, priority 2008, dated 2014)
Values belong to the compound of their own block, whether it stands above or below them.

Legend:
[1] = system: primary human foetal astrocytes; assay: Intracellular NAD+ levels in cultured human foetal astrocytes (NAD(H) microcycling assay); type: cell-based; conditions: for abrogation of resveratrol-induced increase of intracellular NAD+ by de novo pathway inhibitor: inhibitor 1 mM + resveratrol 100 μM; for reversal of NAD+ depletion compared to 1-MT treatment alone: supplementation together with 1-MT
[2] = system: primary human foetal astrocytes; assay: H2O2-mediated intracellular NAD+ depletion in human foetal astrocytes; type: cell-based; conditions: for intracellular NAD+ after oxidative (H2O2) insult: 24 hour pre-treatment (Melatonin 5 μM, Clioquinol 10 μM, resveratrol 100 μM), then 100 μM H2O2 15 min
[3] = system: human primary Keratinocytes; assay: Intracellular NAD 24 hr after UVB exposure in human skin cells; type: cell-based; conditions: single therapy 24 hrs after 15 min UVB; NAD levels / LDH activity; N=3
Experimental: Human skin cells (keratinocytes) were grown at a density of 5×10^6 in PERMANOX® chamber-slides (NUNC) for 2 weeks. This method is commonly used in the industry and is well known to those skilled in the art. Accordingly, there is no need to detail the method utilised in this specification.
Cells were either left unexposed or exposed to 15 min UVB (˜200 mJcm^−2).
Cells were left to incubate for 24 hrs before analysis of intracellular NAD (FIG. 19a-d to FIG. 21) and extracellular LDH (FIG. 21). FIGS. 19a-d show the intracellular NAD concentrations+/−UV exposure, +/−supplementation. FIGS. 19e-h show supernatant LDH activity+/−UVE exposure, +/−supplementation.

[4] = system: human primary Fibroblasts; assay: Residual DNA damage (dsDNA breaks) after UVB, Fibroblasts; type: cell-based; conditions: for amount of dsDNA breaks: EC100 or EC100 equivalent combinations; for EC100: mono therapy, DNA repair
[5] = system: Human neuroblastoma cells (SK-N-SH); assay: Intracellular NAD+ in human neuroblastoma cells treated with H2O2, iron and ascorbic acid; type: cell-based; conditions: for depletion of intracellular NAD+ levels: pre-treatment with 2, 20 and 200 μM, 100 μM H2O2
[6] = system: human primary Keratinocytes; assay: Residual DNA damage (dsDNA breaks) after UVB, Keratinocytes; type: cell-based; conditions: for amount of dsDNA breaks: EC100 or EC100 equivalent combinations; for EC100: mono therapy, DNA repair
PARP-1 = conditions: exposure to 10-100 μM H2O2 for 20 min
[7] = system: primary human foetal astrocytes; conditions: exposure to 10-100 μM H2O2 for 20 min
[8] = system: nicotinamide mononucleotide adenylyl transferase (NMNAT); assay: NMNAT activity in whole cell homogenates of human brain astrocytes; type: biochemical
[9] = target: human recombinant NMNAT (hr-NMNAT1) (Homo sapiens, UniProt Q9HAN9); conditions: resveratrol 50, 100 and 200 μM
Chain of human recombinant NMNAT (hr-NMNAT1) (Q9HAN9 whole entry): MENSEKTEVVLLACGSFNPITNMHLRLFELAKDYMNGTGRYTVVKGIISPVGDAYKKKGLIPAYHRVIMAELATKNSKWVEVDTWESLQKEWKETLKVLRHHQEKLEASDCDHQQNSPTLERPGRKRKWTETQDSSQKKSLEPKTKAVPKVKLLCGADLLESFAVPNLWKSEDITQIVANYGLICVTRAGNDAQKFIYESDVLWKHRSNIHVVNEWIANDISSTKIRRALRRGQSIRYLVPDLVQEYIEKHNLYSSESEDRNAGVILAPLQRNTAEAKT

Compound: Cn1cc(C[C@H](N)C(=O)O)c2ccccc21 [1-MT, 1-methyl tryptophan]
intracellular NAD+ levels ([1]; 1-MT 1 mM, 24 h): significant decrease | abrogation of resveratrol-induced increase of intracellular NAD+ by de novo pathway inhibitor ([1]; 24 hour): Neither inhibitor was able to abrogate the resveratrol effect

Compound: Oc1c(I)cc(Cl)c2cccnc12 [Clioquinol]
intracellular NAD+ after oxidative (H2O2) insult [2]: significantly reduced NAD^+ depletion | Minimum effective concentrations (MEC) [3]: 0.1 µM | amount of dsDNA breaks ([4]; 24 hr after UVB exposure): significantly reduced | EC100 [4]: 0.1 µM | .OH-induced NAD+ depletion ([5]; Clioquinol 1 μM-100 μM, dose dependant, 100 μM H2O2, 10 μM iron, 10 μM ascorbic acid): effectively reduced | amount of dsDNA breaks ([6]; 24 hr after UVB exposure): significantly reduced | EC100 [6]: 0.1 µM

Compound: OO [H2O2, hydrogen peroxide]
Intracellular NAD+ ([2]; exposure to 10-100 μM H2O2 for 20 min): significantly decreased | PARP-1 activity (PARP-1): significantly increased | LDH activity (a measure of cell death) [7]: significantly increased

Compound: N[C@@H](Cc1c[nH]c2ccccc12)C(=O)O [L-tryptophan]
reversal of NAD+ depletion compared to 1-MT treatment alone ([1]; 24 h): partially reversed

Compound: COc1ccc2[nH]cc(CCNC(C)=O)c2c1 [Melatonin]
intracellular NAD+ after oxidative (H2O2) insult [2]: significantly reduced NAD^+ depletion | reduction in damaged DNA ([4]; 24 hr after UVB exposure): ~40% | amount of dsDNA breaks ([4]; 24 hr after UVB exposure): significantly reduced | EC100 [4]: 100 µM | depletion of intracellular NAD+ levels [5]: inhibited | reduction in damaged DNA ([6]; 24 hr after UVB exposure): ~30% | amount of dsDNA breaks ([6]; 24 hr after UVB exposure): significantly reduced | EC100 [6]: 100 µM

Compound: O=C(O)c1ccccc1C(=O)O [PA]
abrogation of resveratrol-induced increase of intracellular NAD+ by de novo pathway inhibitor ([1]; 24 hour): Neither inhibitor was able to abrogate the resveratrol effect

Compound: NC(=O)c1ccccn1 [Picolinamide]
amount of dsDNA breaks ([4]; 24 hr after UVB exposure): significantly reduced | EC100 [4]: 100 µM | amount of dsDNA breaks ([6]; 24 hr after UVB exposure): significantly reduced | EC100 [6]: 100 µM

Compound: O=c1c(O)c(-c2ccc(O)c(O)c2)oc2cc(O)cc(O)c12 [Quercetin]
NAD+ levels after H2O2 exposure ([2]; quercetin (50 μM) overnight, then 10-100 μM H2O2 for 20 min): significantly preserved

decrease of Km [9]: approximately 3 times
Compound: Oc1ccc(/C=C/c2cc(O)cc(O)c2)cc1 [Resveratrol, 3,5,4′-trihydroxystilbene]
intracellular NAD+ after oxidative (H2O2) insult [2]: did not show a significant change | apparent antioxidant activity (H2O2-mediated NAD+ depletion) ([2]; resveratrol 100 μM 24 hour, then H2O2 20 minutes): small reduction in NAD^+ depletion | increase of NMNAT activity compared to control ([8]; 200 μM resveratrol, whole cell homogenates): 67% | increase of NMNAT activity in the whole cell extract ([8]; presence of resveratrol (FIG. 16)): approximately 70% | Minimum effective concentrations (MEC) [3]: 50 µM | intracellular NAD+ versus control levels ([1]; resveratrol 100 μM, 24 hour): significantly increased | increase in intracellular NAD+ concentration ([1]; resveratrol 100 μM, 24 hour, cells not subject to oxidative stress): approximately 75% | amount of dsDNA breaks ([4]; 24 hr after UVB exposure): significantly reduced | EC100 [4]: 100 µM | amount of dsDNA breaks ([6]; 24 hr after UVB exposure): significantly reduced | EC100 [6]: 100 µM

Compound: O=C(O)c1cccnc1 [nicotinic acid, Nicotinic acid]
reversal of NAD+ depletion compared to 1-MT treatment alone ([1]; 24 h): partially reversed

Compound: O=C(OC[C@H]1O[C@@H](OC(=O)c2cc(O)c(O)c(OC(=O)c3cc(O)c(O)c(O)c3)c2)[C@H](OC(=O)c2cc(O)c(O)c(OC(=O)c3cc(O)c(O)c(O)c3)c2)[C@@H](OC(=O)c2cc(O)c(O)c(OC(=O)c3cc(O)c(O)c(O)c3)c2)[C@@H]1OC(=O)c1cc(O)c(O)c(OC(=O)c2cc(O)c(O)c(O)c2)c1)c1cc(O)c(O)c(OC(=O)c2cc(O)c(O)c(O)c2)c1 [tannic acid]
NAD+ levels, tannic acid alone ([1]; 100 μM, 24 hour incubation): did not significantly reduce | effect of resveratrol on intracellular NAD+ levels in presence of tannic acid ([1]; tannic acid 100 μM + resveratrol 100 μM, 24 hours): completely abrogated

Compound: Vitamin E
depletion of intracellular NAD+ levels [5]: inhibited
